Earlier results in US20140315941A1, “METHOD OF REDUCING CNS AND GASTRO[…] AFFECTS ASSOCIATED WITH LONG-TERM, DEXTROMETHORPHAN/LOW-DOSE QUINIDINE COMBINATION THERAPY” (Avanir Pharmaceuticals, Inc., priority 2009, published 2014).

Assays:
[1] = some patients with Huntington's disease; DM doses eight times the maximum antitussive dose
[2] = tested on: pain threshold in CYP2D6 extensive and poor metabolizers; conditions: extensive vs poor metabolizers
[3] = biological target: CYP2D6 (Homo sapiens, UniProt P10635); conditions: in vitro
Sequence of CYP2D6 (P10635 whole entry): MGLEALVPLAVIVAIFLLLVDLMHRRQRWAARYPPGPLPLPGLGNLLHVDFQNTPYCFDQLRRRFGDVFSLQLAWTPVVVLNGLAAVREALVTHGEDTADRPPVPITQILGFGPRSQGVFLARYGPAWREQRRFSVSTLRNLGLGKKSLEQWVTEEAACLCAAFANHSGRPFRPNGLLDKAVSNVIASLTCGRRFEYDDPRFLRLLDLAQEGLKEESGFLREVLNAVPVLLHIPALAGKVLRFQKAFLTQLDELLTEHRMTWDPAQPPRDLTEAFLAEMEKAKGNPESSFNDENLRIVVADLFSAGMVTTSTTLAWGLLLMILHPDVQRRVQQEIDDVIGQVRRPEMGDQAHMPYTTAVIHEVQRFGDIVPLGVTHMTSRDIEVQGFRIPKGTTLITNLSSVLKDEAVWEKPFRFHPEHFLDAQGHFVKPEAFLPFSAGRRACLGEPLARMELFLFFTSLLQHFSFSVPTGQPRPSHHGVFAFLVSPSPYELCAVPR

SMILES	plasma concentrations [1]	antinociceptive effects (increase of pain threshold) [2]	inhibition of CYP2D6 activity (potency, words) [3]
COc1ccc2c(c1)[C@]13CCCCC1[C@H](C2)N(C)CC3 (single isomer, unassigned; (+)) [DM, (+)-3-methoxy-N-methylmorphinan]	undetectable	significant in poor metabolizers but not in extensive metabolizers	–
C=C[C@H]1C[N@@]2CC[C@H]1C[C@@H]2[C@@H](O)c1ccnc2ccc(OC)cc12 [Quinidine, quinidine]	–	–	one of the most potent
